Data taken from patent US10030047B2 (Hoffmann-La Roche Inc., priority 2015, dated 2018).
Converted amounts (≈) assume the structure as drawn.

System: A. baumannii strain ATCC19606
Assay: Minimum inhibitory concentration (MIC) determination, microbroth dilution (CLSI)
Assay type: cell-based
Details: Acinetobacter baumannii; A. baumannii ATCC19606; CAMHB; read after 20 hours; >=80% growth inhibition; read-out: ATCC19606 MIC
How it was run: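 CLSI broth microdilution in cation-adjusted Mueller Hinton broth with twofold compound dilutions and ~5×10^5 CFU/ml inoculum, incubated at 35±2 °C. MIC read after 20 h as lowest concentration inhibiting ≥80% of growth, by eye and OD 600 nm.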

SMILES	MIC
CN1C(=O)[C@H](CCCCN)NC(=O)[C@H](CCCN)NCc2ccncc2Sc2c(Cl)cc(C(F)(F)F)cc2CNC(=O)[C@@H]1Cc1c[nH]c2ccccc12 [Example 123, (11S,14S,17S)-14-(4-Amino-butyl)-11-(3-amino-propyl)-25-chloro-17-(1H-indol-3-ylmethyl)-16-methyl-23-trifluoromethyl-2-thia-5,10,13,16,19-pentaaza-tricyclo[19.4.0.0*3,8*]pentacosa-1(25),3,5,7,21,23-hexaene-12,15,18-trione]	1 µg/mL (≈ 1.29 µM)
CN1C(=O)[C@H](CCCCN)NC(=O)[C@H](CCCN)NCc2cccnc2Sc2c(Cl)cc(-c3cccnc3)cc2CNC(=O)[C@@H]1Cc1c[nH]c2ccccc12 [Example 99, (11S,14S,17S)-14-(4-Amino-butyl)-11-(3-amino-propyl)-25-chloro-17-(1H-indol-3-ylmethyl)-16-methyl-23-pyridin-3-yl-2-thia-4,10,13,16,19-pentaaza-tricyclo[19.4.0.0*3,8*]pentacosa-1(25),3,5,7,21,23-hexaene-12,15,18-trione]	4 µg/mL (≈ 5.11 µM)
CN1C(=O)[C@H](CCCCN)NC(=O)[C@H](CCCN)NCc2ccccc2Sc2c(Cl)cc(-c3cn(C)cn3)cc2CNC(=O)[C@@H]1Cc1c[nH]c2ccccc12 [Example 154, (12S,15S,18S)-15-(4-Amino-butyl)-18-(3-amino-propyl)-4-chloro-12-(1H-indol-3-ylmethyl)-13-methyl-6-(1-methyl-1H-imidazol-4-yl)-2-thia-10,13,16,19-tetraaza-tricyclo[19.4.0.0*3,8*]pentacosa-1(25),3,5,7,21,23-hexaene-11,14,17-trione]	2 µg/mL (≈ 2.55 µM)
COc1ccc2c(c1)CNC(=O)[C@H](Cc1c[nH]c3ccccc13)N(C)C(=O)[C@H](CCCCN)NC(=O)[C@H](CCCN)NCc1ccccc1S2 [Example 7, (12S,15S,18S)-15-(4-Amino-butyl)-18-(3-amino-propyl)-12-(1H-indol-3-ylmethyl)-6-methoxy-13-methyl-2-thia-10,13,16,19-tetraaza-tricyclo[19.4.0.0*3,8*]pentacosa-1(21),3,5,7,22,24-hexaene-11,14,17-trione]	0.5 µg/mL (≈ 0.714 µM)
CN1C(=O)[C@H](CCCCN)NC(=O)[C@H](Cc2cccnc2)NCc2cccnc2Sc2c(Cl)cc(C(F)(F)F)cc2CNC(=O)[C@@H]1Cc1c[nH]c2ccccc12 [Example 86, (11S,14S,17S)-14-(4-Amino-butyl)-25-chloro-17-(1H-indol-3-ylmethyl)-16-methyl-11-pyridin-3-ylmethyl-23-trifluoromethyl-2-thia-4,10,13,16,19-pentaaza-tricyclo[19.4.0.0*3,8*]pentacosa-1(25),3(8),4,6,21,23-hexaene-12,15,18-trione]	16 µg/mL (≈ 19.8 µM)
Cc1cccc2c1Sc1ccccc1CN[C@@H](CCCN)C(=O)N[C@@H](CCCCN)C(=O)N(C)[C@@H](Cc1c[nH]c3ccccc13)C(=O)NC2 [Example 8, (12S,15S,18S)-15-(4-Amino-butyl)-18-(3-amino-propyl)-12-(1H-indol-3-ylmethyl)-4,13-dimethyl-2-thia-10,13,16,19-tetraaza-tricyclo[19.4.0.0*3,8*]pentacosa-1(21),3,5,7,22,24-hexaene-11,14,17-trione]	0.5 µg/mL (≈ 0.731 µM)
Cc1[nH]c2ccccc2c1C[C@H]1C(=O)NCc2cc(-c3ccc(S(N)(=O)=O)cc3)cc(Cl)c2Sc2ncccc2CN[C@@H](CCCN)C(=O)N[C@@H](CCCCN)C(=O)N1C [Example 235, 4-[(11S,14S,17S)-14-(4-Amino-butyl)-11-(3-amino-propyl)-25-chloro-16-methyl-17-(2-methyl-1H-indol-3-ylmethyl)-12,15,18-trioxo-2-thia-4,10,13,16,19-pentaaza-tricyclo[19.4.0.0*3,8*]pentacosa-1(25),3(8),4,6,21,23-hexaen-23-yl]-benzenesulfonamide]	0.5 µg/mL (≈ 0.572 µM)
CN1C(=O)[C@H](CCCCN)NC(=O)[C@H](CCCN)NCc2cccnc2Sc2c(Cl)cc(-c3ccc(S(C)(=O)=O)cc3)cc2CNC(=O)[C@@H]1Cc1c[nH]c2ccccc12 [Example 172, (11S,14S,17S)-14-(4-Amino-butyl)-11-(3-amino-propyl)-25-chloro-17-(1H-indol-3-ylmethyl)-23-(4-methanesulfonyl-phenyl)-16-methyl-2-thia-4,10,13,16,19-pentaaza-tricyclo[19.4.0.0*3,8*]pentacosa-1(25),3(8),4,6,21,23-hexaene-12,15,18-trione]	0.5 µg/mL (≈ 0.582 µM)
Cc1[nH]c2ccccc2c1C[C@H]1C(=O)NCc2cc(-c3ccnc(Cl)c3)cc(Cl)c2Sc2ncccc2CN[C@@H](CCCN)C(=O)N[C@@H](CCCCN)C(=O)N1C [Example 182, (11S,14S,17S)-14-(4-Amino-butyl)-11-(3-amino-propyl)-25-chloro-23-(2-chloro-pyridin-4-yl)-16-methyl-17-(2-methyl-1H-indol-3-ylmethyl)-2-thia-4,10,13,16,19-pentaaza-tricyclo[19.4.0.0*3,8*]pentacosa-1(25),3(8),4,6,21,23-hexaene-12,15,18-trione]	0.5 µg/mL (≈ 0.602 µM)
CN1C(=O)[C@H](CCCCN)NC(=O)[C@H](CCCN)NCc2ncccc2Sc2c(Cl)cc(C(F)(F)F)cc2CNC(=O)[C@@H]1Cc1c[nH]c2ccccc12 [Example 112, (11S,14S,17S)-14-(4-Amino-butyl)-11-(3-amino-propyl)-25-chloro-17-(1H-indol-3-ylmethyl)-16-methyl-23-trifluoromethyl-2-thia-7,10,13,16,19-pentaaza-tricyclo[19.4.0.0*3,8*]pentacosa-1(25),3,5,7,21,23-hexaene-12,15,18-trione]	0.5 µg/mL (≈ 0.647 µM)
COc1cc(-c2cc(Cl)c3c(c2)CNC(=O)[C@H](Cc2c(C)[nH]c4ccccc24)N(C)C(=O)[C@H](CCCCN)NC(=O)[C@H](CCCN)NCc2cccnc2S3)ccn1 [Example 171, (11S,14S,17S)-14-(4-Amino-butyl)-11-(3-amino-propyl)-25-chloro-23-(2-methoxy-pyridin-4-yl)-16-methyl-17-(2-methyl-1H-indol-3-ylmethyl)-2-thia-4,10,13,16,19-pentaaza-tricyclo[19.4.0.0*3,8*]pentacosa-1(25),3(8),4,6,21,23-hexaene-12,15,18-trione]	0.5 µg/mL (≈ 0.605 µM)
CN1C(=O)[C@H](CCCCN)NC(=O)[C@H](CNC(N)=O)NCc2cccnc2Sc2c(Cl)cc(Cl)cc2CNC(=O)[C@@H]1Cc1c[nH]c2ccccc12 [Example 180, [(11S,14S,17S)-14-(4-Amino-butyl)-23,25-dichloro-17-(1H-indol-3-ylmethyl)-16-methyl-12,15,18-trioxo-2-thia-4,10,13,16,19-pentaaza-tricyclo[19.4.0.0*3,8*]pentacosa-1(25),3(8),4,6,21,23-hexaen-11-ylmethyl]-urea]	1 µg/mL (≈ 1.32 µM)
CN1C(=O)[C@H](CCCCN)NC(=O)[C@H](CNC(=N)N)NCc2ccccc2Sc2ccccc2CNC(=O)[C@@H]1Cc1c[nH]c2ccccc12 [Example 5, N-[(11S,14S,17S)-14-(4-Amino-butyl)-17-(1H-indol-3-ylmethyl)-16-methyl-12,15,18-trioxo-2-thia-10,13,16,19-tetraaza-tricyclo[19.4.0.0*3,8*]pentacosa-1(25),3(8),4,6,21,23-hexaen-11-ylmethyl]-guanidine]	32 µg/mL (≈ 46.8 µM)
CN1C(=O)[C@H](CCCCN)NC(=O)[C@H](CCCN)NCc2cccnc2Sc2c(Cl)cc(-c3ccc(S(N)(=O)=O)cc3)cc2CNC(=O)[C@@H]1Cc1c[nH]c2ccccc12 [Example 214, 4-[(11S,14S,17S)-14-(4-Amino-butyl)-11-(3-amino-propyl)-25-chloro-17-(1H-indol-3-ylmethyl)-16-methyl-12,15,18-trioxo-2-thia-4,10,13,16,19-pentaaza-tricyclo[19.4.0.0*3,8*]pentacosa-1(21),3,5,7,22,24-hexaen-23-yl]-benzenesulfonamide]	0.25 µg/mL (≈ 0.291 µM)
COc1cc(Cl)c2c(c1)CNC(=O)[C@H](Cc1c[nH]c3ccccc13)N(C)C(=O)[C@H](CCCCN)NC(=O)[C@H](CCCN)NCc1ccccc1S2 [Example 49, (12S,15S,18S)-15-(4-Amino-butyl)-18-(3-amino-propyl)-4-chloro-12-(1H-indol-3-ylmethyl)-6-methoxy-13-methyl-2-thia-10,13,16,19-tetraaza-tricyclo[19.4.0.0*3,8*]pentacosa-1(25),3,5,7,21,23-hexaene-11,14,17-trione]	0.5 µg/mL (≈ 0.681 µM)
CN1C(=O)[C@H](CCCCN)NC(=O)[C@H](CCCN)NCc2ccccc2Sc2cc(Cl)ccc2CNC(=O)[C@@H]1Cc1c[nH]c2ccccc12 [Example 6, (12S,15S,18S)-15-(4-Amino-butyl)-18-(3-amino-propyl)-5-chloro-12-(1H-indol-3-ylmethyl)-13-methyl-2-thia-10,13,16,19-tetraaza-tricyclo[19.4.0.0*3,8*]pentacosa-1(21),3,5,7,22,24-hexaene-11,14,17-trione]	2 µg/mL (≈ 2.84 µM)
CN1C(=O)[C@H](CCCCN)NC(=O)[C@H](CCCN)NCc2cccnc2Sc2c(Cl)cc(-c3ccccc3)cc2CNC(=O)[C@@H]1Cc1c[nH]c2ccccc12 [Example 149]	1 µg/mL (≈ 1.28 µM)
CN1C(=O)[C@H](CCCCN)NC(=O)[C@H](CCCN)NCc2ccccc2Sc2c(Cl)cccc2CNC(=O)[C@@H]1Cc1c[nH]c2ccccc12 [Example 11, (12S,15S,18S)-15-(4-Amino-butyl)-18-(3-amino-propyl)-4-chloro-12-(1H-indol-3-ylmethyl)-13-methyl-2-thia-10,13,16,19-tetraaza-tricyclo[19.4.0.0*3,8*]pentacosa-1(21),3,5,7,22,24-hexaene-11,14,17-trione]	0.5 µg/mL (≈ 0.71 µM)
Cc1noc(C)c1-c1cc(Cl)c2c(c1)CNC(=O)[C@H](Cc1c[nH]c3ccccc13)N(C)C(=O)[C@H](CCCCN)NC(=O)[C@H](CCCN)NCc1cccnc1S2 [Example 186, (11S,14S,17S)-14-(4-Amino-butyl)-11-(3-amino-propyl)-25-chloro-23-(3,5-dimethyl-isoxazol-4-yl)-17-(1H-indol-3-ylmethyl)-16-methyl-2-thia-4,10,13,16,19-pentaaza-tricyclo[19.4.0.0*3,8*]pentacosa-1(25),3(8),4,6,21,23-hexaene-12,15,18-trione]	0.5 µg/mL (≈ 0.625 µM)
